Data: patent publication US20260297109A1, “COMPOUNDS AS SUMO ACTIVATING ENZYME INHIBITORS” (WIGEN BIOMEDICINE TECHNOLOGY (SHANGHAI) CO., LTD., priority 2022, published 2026)
Like-named read-outs stand apart in the source and are kept apart here. Values belong to the compound of their own block, whether it stands above or below them.

Experiments:
[1] = molecular target: T1, SAE (Homo sapiens, UniProt Q9UBT2); assay: SUMO IF: in vitro inhibitory activity assay against SAE in HCT116 cells (SUMO-2/3 immunofluorescence); format: cell-based; details: 6 h at 37° C.
T1 construct: endogenous in cells; host or cells: HCT116
T1 sequence (Q9UBT2 1-640): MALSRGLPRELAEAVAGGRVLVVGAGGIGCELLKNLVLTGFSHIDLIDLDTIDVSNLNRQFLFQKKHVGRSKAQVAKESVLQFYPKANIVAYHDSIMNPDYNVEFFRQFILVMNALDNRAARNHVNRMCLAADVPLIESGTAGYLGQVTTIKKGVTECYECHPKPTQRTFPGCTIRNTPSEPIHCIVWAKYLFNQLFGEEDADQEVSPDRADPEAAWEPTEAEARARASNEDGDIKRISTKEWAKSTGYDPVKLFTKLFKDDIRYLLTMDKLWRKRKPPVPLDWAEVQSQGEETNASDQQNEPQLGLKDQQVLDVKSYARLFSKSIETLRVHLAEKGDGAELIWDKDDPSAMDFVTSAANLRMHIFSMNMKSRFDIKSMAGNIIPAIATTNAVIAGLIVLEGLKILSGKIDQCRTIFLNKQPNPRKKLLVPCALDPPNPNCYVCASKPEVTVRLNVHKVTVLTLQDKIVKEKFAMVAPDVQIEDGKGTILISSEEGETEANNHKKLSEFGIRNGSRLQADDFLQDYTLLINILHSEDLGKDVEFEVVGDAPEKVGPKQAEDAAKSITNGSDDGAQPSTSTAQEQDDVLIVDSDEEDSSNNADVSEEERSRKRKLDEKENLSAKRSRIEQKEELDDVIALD
T1 sequence (Q9UBE0 1-346): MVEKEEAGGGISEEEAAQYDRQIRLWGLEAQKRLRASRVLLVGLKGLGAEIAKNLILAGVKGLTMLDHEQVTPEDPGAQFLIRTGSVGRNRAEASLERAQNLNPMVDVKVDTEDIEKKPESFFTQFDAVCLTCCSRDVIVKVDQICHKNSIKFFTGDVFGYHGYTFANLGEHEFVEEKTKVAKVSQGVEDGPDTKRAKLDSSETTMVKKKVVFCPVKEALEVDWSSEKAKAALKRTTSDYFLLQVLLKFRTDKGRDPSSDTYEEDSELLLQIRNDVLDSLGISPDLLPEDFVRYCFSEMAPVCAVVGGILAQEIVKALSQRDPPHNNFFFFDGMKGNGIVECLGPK
Procedure, shortened: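 HCT116 cells were treated with compound for 6 h at 37 °C, then PFA-fixed, Triton-permeabilised and BSA-blocked. They were stained overnight at 4 °C with anti-SUMO-2/3 (18H8) rabbit mAb (1:400), then with FITC anti-rabbit IgG (1:300). Fluorescence versus DMSO gave inhibition rate and IC50.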

[2] = In vivo pharmacokinetic experiment in CD-1 female mice, intravenous; details: CD-1 mice; for Plasma AUClast: plasma (Table 4); for C0 / clearance / half-life / AUC(0-t) / Cmax / Vd / blood plasma ratio: mouse; for Vd: read-out: Vdss; for blood plasma ratio: in vivo, iv
Description: Biological Example 3. In Vivo Pharmacokinetic Experiment of Compound of the Present Disclosure
[…] The mice were fasted for at least 12 h before the administration and given food after the administration, and they were given ad libitum access to water during the experiment. On the day of the experiment, animals in the intravenous group were administered the corresponding compound by single injection via the tail vein at an administration volume of 0.2 mL/animal. The sample collection time was 0.083 h, 0.167 h, 0.5 h, 1 h, 2 h, 4 h, 8 h, and 24 h. About 150 μL of whole blood was collected through the submaxillary venous plexus at each time point (30 μL of whole blood was diluted with ultrapure water at a ratio of 1:3, and 120 μL of whole blood was centrifuged to obtain plasma) and used for concentration determination by high-performance liquid chromatography-tandem mass spectrometry (LC-MS/MS). All animals were sacrificed after the PK samples were collected at the last time point. The plasma concentration was processed using a non-compartmental model of Phoenix WinNonlin™ version 8.3 (Certara) pharmacokinetic software, and the pharmacokinetic parameters were calculated using a linear-log trapezoidal method.

[3] = 2 mg/kg, 2 mpk, plasma, read-out: AUClast
[4] = 2 mg/kg, 2 mpk, plasma, read-out: Cmax
[5] = 2 mg/kg, 2 mpk, whole blood, read-out: Whole blood AUClast
[6] = 2 mg/kg, 2 mpk, whole blood, read-out: Whole blood Cmax
[7] = 2 mg/kg, 2 mpk, read-out: Whole blood AUClast/plasma AUClast ratio
[8] = 2 mg/kg, 2 mpk, read-out: Whole blood Cmax/plasma Cmax ratio

Plasma AUClast ([2]; 2 mpk): 615 ng·h/mL
C0 ([2]; 2 mg/kg, 2 mpk, plasma): 431 ng/mL
clearance ([2]; 2 mg/kg, 2 mpk, plasma): 53.1 mL/min/kg
half-life ([2]; 2 mg/kg, 2 mpk, plasma): 4.73 h
AUC(0-t) [2, 3]: 615 ng·h/mL
Cmax [2, 4]: 331 ng/mL
Vd ([2]; 2 mg/kg, 2 mpk, plasma): 12.7 L/kg
AUC(0-t) [2, 5]: 46600 ng·h/mL
Cmax [2, 6]: 13400 ng/mL
blood plasma ratio [2, 7]: 75.7
blood plasma ratio [2, 8]: 40.5
SMILES: NS(=O)(=O)OC[C@H]1[C@H](F)[C@@H](Nc2ncncc2C(=O)c2cc3c(s2)CCC[C@]32NCCc3ccc(Cl)cc32)C[C@@H]1O [Compound 90]
IC50 ([1]; numeric values): 21.1 nM

Plasma AUClast ([2]; 2 mpk): 345 ng·h/mL
C0 ([2]; 2 mg/kg, 2 mpk, plasma): 249 ng/mL
clearance ([2]; 2 mg/kg, 2 mpk, plasma): 94.9 mL/min/kg
half-life ([2]; 2 mg/kg, 2 mpk, plasma): 1.48 h
AUC(0-t) [2, 3]: 345 ng·h/mL
Cmax [2, 4]: 299 ng/mL
Vd ([2]; 2 mg/kg, 2 mpk, plasma): 8.65 L/kg
AUC(0-t) [2, 5]: 17000 ng·h/mL
Cmax [2, 6]: 7780 ng/mL
blood plasma ratio [2, 7]: 49.2
blood plasma ratio [2, 8]: 26
SMILES: NS(=O)(=O)OC[C@H]1[C@H](F)[C@@H](Nc2ncncc2C(=O)c2cc3c(s2)C=C[C@]32NCCc3ccc(Cl)cc32)C[C@@H]1O [Compound 344]
IC50 ([1]; numeric values): 20.7 nM

Plasma AUClast ([2]; 2 mpk): 602 ng·h/mL
C0 ([2]; 2 mg/kg, 2 mpk, plasma): 803 ng/mL
clearance ([2]; 2 mg/kg, 2 mpk, plasma): 27.5 mL/min/kg
half-life ([2]; 2 mg/kg, 2 mpk, plasma): 3.48 h
AUC(0-t) [2, 3]: 602 ng·h/mL
Cmax [2, 4]: 438 ng/mL
Vd ([2]; 2 mg/kg, 2 mpk, plasma): 5.45 L/kg
AUC(0-t) [2, 5]: 38200 ng·h/mL
Cmax [2, 6]: 9270 ng/mL
blood plasma ratio [2, 7]: 63.4
blood plasma ratio [2, 8]: 21.1
SMILES: NS(=O)(=O)OC[C@H]1[C@H](F)[C@@H](Nc2ncncc2C(=O)c2cc3c(s2)CC[C@]32NCCc3ccc(Cl)cc32)C[C@@H]1O [Compound 132]
IC50 ([1]; numeric values): 40.6 nM

Plasma AUClast ([2]; 1 mpk): 132 ng·h/mL
C0 ([2]; 1 mg/kg, 1 mpk, plasma): 77 ng/mL
clearance ([2]; 1 mg/kg, 1 mpk, plasma): 103 mL/min/kg
half-life ([2]; 1 mg/kg, 1 mpk, plasma): 3.63 h
AUC(0-t) ([2]; 1 mg/kg, 1 mpk, plasma, read-out: AUClast): 132 ng·h/mL
Cmax ([2]; 1 mg/kg, 1 mpk, plasma, read-out: Cmax): 58 ng/mL
Vd ([2]; 1 mg/kg, 1 mpk, plasma): 27.6 L/kg
AUC(0-t) ([2]; 1 mg/kg, 1 mpk, whole blood, read-out: Whole blood AUClast): 30100 ng·h/mL
Cmax ([2]; 1 mg/kg, 1 mpk, whole blood, read-out: Whole blood Cmax): 4430 ng/mL
blood plasma ratio ([2]; 1 mg/kg, 1 mpk, read-out: Whole blood AUClast/plasma AUClast ratio): 228
blood plasma ratio ([2]; 1 mg/kg, 1 mpk, read-out: Whole blood Cmax/plasma Cmax ratio): 76.3
SMILES: Cc1sc(C(=O)c2cncnc2N[C@H]2C[C@H](O)[C@@H](COS(N)(=O)=O)[C@@H]2F)cc1[C@@H]1NCCc2ccc(Cl)cc21 [Compound 233]
IC50 ([1]; numeric values): 42.6 nM

Plasma AUClast ([2]; 2 mpk): 448 ng·h/mL
C0 ([2]; 2 mg/kg, 2 mpk, plasma): 406 ng/mL
clearance ([2]; 2 mg/kg, 2 mpk, plasma): 71.1 mL/min/kg
half-life ([2]; 2 mg/kg, 2 mpk, plasma): 1.88 h
AUC(0-t) [2, 3]: 448 ng·h/mL
Cmax [2, 4]: 281 ng/mL
Vd ([2]; 2 mg/kg, 2 mpk, plasma): 9.18 L/kg
AUC(0-t) [2, 5]: 25100 ng·h/mL
Cmax [2, 6]: 13300 ng/mL
blood plasma ratio [2, 7]: 56
blood plasma ratio [2, 8]: 47.4
SMILES: NS(=O)(=O)OC[C@H]1[C@H](F)[C@@H](Nc2ncncc2C(=O)c2cc3c(s2)CCC[C@]32NCCc3ccc(F)cc32)C[C@@H]1O [Compound 93]
IC50 ([1]; numeric values): 32.1 nM

SMILES: CC1(C)Cc2ccc(Cl)cc2C2(CCCc3sc(C(=O)c4cncnc4N[C@H]4C[C@H](O)[C@@H](COS(N)(=O)=O)[C@@H]4F)cc32)N1 (stereo partly drawn) [Compound 1029]
IC50 ([1]; class symbols): 50 to 200 nM

SMILES: NS(=O)(=O)OC[C@H]1[C@H](F)[C@@H](Nc2ncncc2C(=O)c2cc3c(s2)CC[C@]32NCCc3ccccc32)C[C@@H]1O [Compound 129]
IC50 ([1]; numeric values): 121 nM

SMILES: NS(=O)(=O)OC[C@H]1[C@H](F)[C@@H](Nc2ncncc2C(=O)c2cc3c(s2)CC[C@]32NCCc3cc(F)c(F)cc32)C[C@@H]1O [Compound 691]
IC50 ([1]; class symbols): ≤ 50 nM

SMILES: NS(=O)(=O)OC[C@H]1[C@H](F)[C@@H](Nc2ncncc2C(=O)c2cc3c(s2)COC[C@@]32NCCc3c(Cl)cc(Cl)cc32)C[C@@H]1O [Compound 565]
IC50 ([1]; class symbols): > 200 nM

SMILES: COc1cc2c(cc1Cl)C(c1cc(C(=O)c3cncnc3N[C@H]3C[C@H](O)[C@@H](COS(N)(=O)=O)[C@@H]3F)sc1C)NCC2 (stereo partly drawn) [Compound 250]
IC50 ([1]; class symbols): 50 to 200 nM

SMILES: NS(=O)(=O)OC[C@H]1[C@H](F)[C@@H](Nc2ncncc2C(=O)c2cc3c(s2)CC[C@]32NCCc3cc(Cl)ncc32)C[C@@H]1O [Compound 700]
IC50 ([1]; class symbols): 50 to 200 nM

SMILES: Cc1cc2c(cc1Cl)C1(CCc3sc(C(=O)c4cncnc4N[C@H]4C[C@H](O)[C@@H](COS(N)(=O)=O)[C@@H]4F)cc31)NCC2 (stereo partly drawn) [Compound 155]
IC50 ([1]; class symbols): 50 to 200 nM

SMILES: Cc1cc2c(cc1Cl)[C@@]1(CCc3sc(C(=O)c4cncnc4N[C@H]4C[C@H](O)[C@@H](COS(N)(=O)=O)[C@@H]4F)cc31)NCC2 [Compound 694]
IC50 ([1]; class symbols): ≤ 50 nM

SMILES: CC1CN[C@@]2(C=Cc3sc(C(=O)c4cncnc4N[C@H]4C[C@H](O)[C@@H](COS(N)(=O)=O)[C@@H]4F)cc32)c2cc(Cl)ccc21 (stereo partly drawn) [Compound 1054]
IC50 ([1]; class symbols): > 200 nM

SMILES: NS(=O)(=O)OC[C@H]1[C@H](F)[C@@H](Nc2ncncc2C(=O)c2cc3c(s2)C=CC[C@]32NCCc3ccc(Cl)cc32)C[C@@H]1O [Compound 680]
IC50 ([1]; class symbols): ≤ 50 nM

SMILES: NS(=O)(=O)CC[C@H]1[C@H](F)[C@@H](Nc2ncncc2C(=O)c2cc3c(s2)CC[C@]32NCCc3ccc(Cl)cc32)C[C@@H]1O [Compound 642]
IC50 ([1]; class symbols): 50 to 200 nM

SMILES: [2H]C1(c2cc(C(=O)c3cncnc3N[C@H]3C[C@H](O)[C@@H](COS(N)(=O)=O)[C@@H]3F)sc2C)NCCc2ccc(Cl)cc21 (stereo partly drawn) [Compound 269]
IC50 ([1]; class symbols): 50 to 200 nM
